Marks after values point to notes of the source that are not given here.

The data set in a line: physchem. Format: physicochemical. The method, then:
Measurement of Log P values as provided herein was performed according to EEC directive 79/831 Annex V.A8 by HPLC (High Performance Liquid Chromatography) on reversed phase columns with the following methods: […] If more than one Log P value is available within the same method, all the values are given and separated by “+”. Calibration was done with straight-chain alkan2-ones (with 3 to 16 carbon atoms) with known Log P values (measurement of Log P values using retention times with linear interpolation between successive alkanones). Lambda-max-values were determined using UV-spectra from 200 nm to 400 nm and the peak values of the chromatographic signals
For the compound `COCCc1ccc(C(F)(F)CNC(=O)c2cc(CCOC)ncc2Oc2cccc(C(F)F)c2)c(Cl)c1` [Compound I-267], the LogP is 3.74^[a]. Take `Cc1ccc(C(F)(F)CNC(=O)c2cc(C)ncc2Oc2cccc(C(F)F)c2)c(C)c1` [Compound I-049]: the LogP was 3.73^[a]. Take `Cc1cccc(Oc2cnc(C)cc2C(=O)NCC(F)(F)c2ccc(C)cc2Cl)c1` [Compound I-068]: the LogP was 4.06^[a]. Consider `Cc1ccc(CCNC(=O)c2cc(Cl)ncc2Oc2ccc(F)c(Cl)c2)c(C)c1` [Compound I-154], for which the LogP was 4.72^[a]. Take `O=C(NCC(F)c1ccc(Cl)cc1Cl)c1cc(-c2ccncc2Cl)ncc1Oc1cccc(C(F)(F)F)c1` (racemic) [Compound I-195]: the LogP was 4.68^[a]. Turning to `Cc1ccc(CCNC(=O)c2cc(C3CC3)ncc2Oc2cccc(C3CC3)c2F)c(C)c1` [Compound I-243], the LogP was 5.32^[a].

For the compound `Cc1ccc(CCNC(=O)c2cc(C3CC3)ncc2Oc2cccc(C3CC3)c2)c(C)c1` [Compound I-186], the LogP was 5.22^[a]. Regarding `COc1cccc(Oc2cnc(C)cc2C(=O)NCC(F)c2ccc(C)cc2Cl)c1` (stereo not drawn) [Compound I-209], the LogP was 3.62^[a]. With `CCN(CCc1ccccc1)C(=O)c1cc(Cl)ncc1Oc1cccc(C(F)(F)F)c1` [Compound I-152], the LogP was 4.44^[a]. With `O=C(O)c1cc(Cl)ncc1Oc1cccc(C(F)(F)F)c1` [Compound 1-001], the LogP was 2.84^[a]. As to `Cc1ccc(C(F)CNC(=O)c2cc(C)ncc2Oc2cccc(C(F)F)c2)c(Cl)c1` (stereo not drawn) [Compound I-224], the LogP was 3.63^[a]. Turning to `Cc1ccc(CCNC(=O)c2cc(Cl)ncc2Oc2ccc(Cl)c(Cl)c2)c(C)c1` [Compound I-250], the LogP is 5.08^[a]. In the case of `COc1cc(C(=O)O)c(Oc2cccc(C(F)(F)F)c2)cn1` [Compound 1-017], the LogP was 2.86^[a]. Consider `Cc1ccc(CCNC(=O)c2cc(Cl)ncc2Oc2cccc(C=O)c2)c(C)c1` [Compound I-228], for which the LogP is 3.79^[a]. As to `C=Cc1cc(C(=O)NCC(F)(F)c2ccc(C)cc2C)c(Oc2cccc(C3CC3)c2F)cn1` [Compound I-173], the LogP is 5.04^[a]. On the same count and under the same terms, next, `COc1cccc(Oc2cnc(C)cc2C(=O)NCC(F)c2ccc(Cl)cc2Cl)c1` (stereo not drawn) [Compound I-219]: 3.75^[a]; `Cc1ccc(C(F)(F)CNC(=O)c2cc(Cl)ncc2Oc2cccc(C(F)(F)F)c2)c(C)c1` [Compound I-005]: 4.77^[a]; `Cc1ccc(C(F)CNC(=O)c2cc(C)ncc2Oc2cccc(C3CC3)c2)c(Cl)c1` (racemic) [Compound I-073]: 4.30^[a].

Turning to `Cc1ccc(CCNC(=O)c2cc(Cl)ncc2Oc2cc(F)c(F)cc2F)c(C)c1` [Compound I-233], the LogP was 4.42^[a].

Take `Cc1ccc(CCNC(=O)c2cc(Cl)ncc2Oc2ccc(C(F)(F)F)cc2)c(C)c1` [Compound I-240]: the LogP was 4.77^[a]. Turning to `C=C(OCC)c1cc(C(=O)NCCc2ccc(C)cc2C)c(Oc2cccc(C(F)(F)F)c2)cn1` [Compound I-051], the LogP is 4.84^[a].

As for `CCC(=O)N(CCc1ccccc1)C(=O)c1cc(Cl)ncc1Oc1cccc(C(F)(F)F)c1` [Compound I-166], the LogP is 5.08^[a]. In the case of `Cc1ccc(C(F)(F)CNC(=O)c2cc(Cl)nc(Cl)c2Oc2cccc(C(F)(F)F)c2)c(C)c1` [Compound I-247], the LogP was 5.16^[a]. Consider `Cc1ccc(CCNC(=O)c2cc(C)ncc2Oc2cccc(C(F)(F)F)c2)c(C)c1` [Compound I-028], for which the LogP was 4.03^[a]. Still for that read-out and setting: next, `O=C(NCCc1csc2ccc(Cl)cc12)c1cc(Cl)ncc1Oc1cccc(C(F)(F)F)c1` [Compound I-213]: 5.00^[a]; `N#Cc1nc(Cl)cc(C(=O)NCC(F)(F)c2ccc(Br)cc2Cl)c1Oc1cccc(C(F)(F)F)c1` [Compound I-215]: 4.81^[a]. On to `O=C(NCC(F)(F)c1ccc(Br)cc1Cl)c1cc(Cl)ncc1Oc1cccc(C2CC2)c1F` [Compound I-210], for which the LogP is 5.31^[a]. For `Cc1ccc(CCNC(=O)c2cc(Cl)ncc2Oc2cccc(C3CC3F)c2)c(C)c1` (single isomer, unassigned) [Compound I-265], the LogP is 4.70^[a]. `Cc1ccc(CCNC(=O)c2cc(Cl)ncc2Oc2ccc3ccccc3c2)c(C)c1` [Compound I-168]: the LogP is 5.03^[a]. Same read-out and setting: next, `CCc1cc(C(=O)NCC(F)(F)c2ccc(C)cc2C)c(Oc2cccc(C(F)(F)F)c2)cn1` [Compound I-026]: 4.58^[a]; `Cc1ccc(CONC(=O)c2cc(Cl)ncc2Oc2cccc(C(F)(F)F)c2)c(C)c1` [Compound I-017]: 4.26^[a].

On to `Cc1cc(C(=O)NCC(F)c2ccc(Cl)cc2C)c(Oc2cccc(C3CC3)c2F)cn1` (stereo not drawn) [Compound I-205], for which the LogP was 4.37^[a]. In the case of `Cc1ccc(CCNC(=O)c2cc(Cl)ncc2Oc2ccc(OC(F)(F)F)cc2)c(C)c1` [Compound I-165], the LogP was 4.97^[a]. On to `COc1c(Cl)ncc(Oc2cccc(Cl)c2)c1C(=O)NCC(F)(F)c1ccc(C)cc1C` [Compound I-200], for which the LogP is 4.62^[a]. For `Cc1ccc(CCNC(=O)c2cc(Cl)ncc2Oc2cccc(C(F)(F)F)c2)c(C)c1` [Compound I-002], the LogP is 4.73^[a]. As for `O=C(NCC(F)c1ccc(Cl)cc1Cl)c1cc(Cl)ncc1Oc1cccc(C(F)(F)F)c1` (stereo not drawn) [Compound I-010], the LogP is 4.74^[a]. `O=C(NCC(F)c1ccc(Cl)cc1Cl)c1cc(C2CC2)ncc1Oc1cccc(C2CC2)c1` (stereo not drawn) [Compound I-253]: the LogP was 5.42^[a].

Take `COCCc1ccc(C(F)(F)CNC(=O)c2cc(Cl)ncc2Oc2cccc(C(F)F)c2)c(Cl)c1` [Compound I-203]: the LogP was 4.14^[a]. As to `COc1cc(C(F)CNC(=O)c2cc(Cl)ncc2Oc2cccc(C(F)(F)F)c2)ccc1Cl` (racemic) [Compound I-081], the LogP is 4.37^[a]. With `CSc1c(Cl)ncc(Oc2cccc(C(F)(F)F)c2)c1C(=O)NCC(F)(F)c1ccc(C)cc1C` [Compound I-174], the LogP is 4.85^[a]. As for `C#Cc1cc(C(=O)NCC(F)c2ccc(Cl)cc2Cl)c(Oc2cccc(C(F)(F)F)c2)cn1` (racemic) [Compound I-189], the LogP was 4.41^[a]. On to `Cc1ccc(CCNC(=O)c2cc(C)ncc2Oc2cccc(C3CC3)c2F)c(C)c1` [Compound I-262], for which the LogP is 4.32^[a]. For the compound `Cc1cc(C(=O)NCC(F)c2ccc(Cl)cc2Cl)c(Oc2cccc(Cl)c2)cn1` (racemic) [Compound I-053], the LogP was 4.12^[a].

Regarding `Cc1cccc(Oc2cnc(Cl)cc2C(=O)O)c1` [Compound 1-008], the LogP is 2.60^[a]. In turn, `COC(=O)c1cc(C(C)=O)ncc1Oc1cccc(C(F)(F)F)c1` [Compound 1-012, methyl 2-acetyl-5-[3-(trifluoromethyl)phenoxy]pyridine-4-carboxylate] showed a chromatographic logP of 3.59. Take `CSc1cccc(Oc2cnc(Cl)cc2C(=O)NCCc2ccc(C)cc2C)c1` [Compound I-248]: the LogP was 4.76^[a]. `Cc1ccc(CCNC(=O)c2cc(Cl)ncc2Oc2cccc(C#N)c2F)c(C)c1` [Compound I-126]: the LogP was 3.91^[a].

Take `Cc1ccc(CCNC(=O)c2cc(Cl)ncc2Oc2cc(F)cc(Cl)c2)c(C)c1` [Compound I-244]: the LogP was 4.82^[a].

The chromatographic logP is a lipophilicity value derived from retention on a column. Read a high chromatographic logP as a more lipophilic compound.

The record behind these values is patent US12552748B2, “Pyridine (thio)amides as fungicidal compounds” (Bayer Aktiengesellschaft, priority 2020, dated 2026).
